Test: Critical micelle concentration by pyrene fluorescence
Assay type: physicochemical
Conditions: fluorescence (pyrene I1/I3), aqueous solution, 25 °C
Protocol: The aggregation behavior of ester-functionalized choline-based ILs was investigated through fluorescence measurements using pyrene as a solvatochromic probe. By monitoring the polarity of pyrene’s microenvironment at varying IL concentrations, the intensity ratio of pyrene’s first (I1) and third (I3) vibronic peaks was analyzed (Figure 3). A sharp decline in the I1/I3 ratio indicated the formation of IL aggregates. The critical micelle concentration (CMC) was determined as the midpoint of the transition, with the data fitting well to sigmoidal Boltzmann-type curves.
A Shimadzu RF 540 spectrofluorometer equipped with cell holder thermostatical controlled at 25 °C was used to detect steady-state fluorescence. The fluorescent probe, pyrene, was used at a concentration of 1 × 10^−6 M. After irradiation at 332 nm, the fluorescence emission spectra of pyrene dissolved in aqueous CnECholBr solutions were recorded from 340 to 450 nm.

| SMILES | CMC |
| --- | --- |
| CCCCCCCCCCCCCCOC(=O)C[N+](C)(C)CCO.[Br-] [C14ECholBr, N-(2-hydroxyethyl)-N,N-dimethyl-2-oxo-2-(tetradecyloxy)ethan-1-aminium bromide] | 1.3 ± 0.1 mM |
| CCCCCCCCCCOC(=O)C[N+](C)(C)CCO [C10ECholBr] | 9.0 ± 0.5 mM |
| CCCCCCCCCCCCOC(=O)C[N+](C)(C)CCO [C12ECholBr] | 2.9 ± 0.1 mM |

Reference: paper PMC11946258, “Self-Assembly, Antimicrobial Properties and Biodegradability of Ester-Functionalized Choline-Based Surface-Active Ionic Liquids” (Molecules, 2025)
